Measurements: patent US9446039B2, “Aminoheteroaryl compounds as MTH1 inhibitors” (CEMM—FORSCHUNGSZENTRUM FÜR MOLEKULARE MEDIZIN GMBH, priority 2012, dated 2016)

Tests used:
Type in all cases: binding
[1] = target: SW480 colon carcinoma cells lysate proteins (Homo sapiens, UniProt O43707); details: PreyGene ACTN4
[2] = target: SW480 colon carcinoma cells lysate proteins (Homo sapiens, UniProt P06733); details: PreyGene ENO1
[3] = target: SW480 colon carcinoma cells lysate proteins (Homo sapiens, UniProt P15559); details: PreyGene NQO1
Sequence of SW480 colon carcinoma cells lysate proteins (Homo sapiens, UniProt P15559) (P15559 whole entry): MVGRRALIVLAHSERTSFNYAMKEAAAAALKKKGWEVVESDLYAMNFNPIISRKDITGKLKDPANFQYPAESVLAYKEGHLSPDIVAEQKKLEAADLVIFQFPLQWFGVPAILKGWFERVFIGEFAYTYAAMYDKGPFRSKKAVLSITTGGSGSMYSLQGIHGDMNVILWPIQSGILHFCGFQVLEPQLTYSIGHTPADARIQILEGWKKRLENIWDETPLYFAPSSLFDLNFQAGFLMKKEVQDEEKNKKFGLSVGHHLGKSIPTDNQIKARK

[4] = target: SW480 colon carcinoma cells lysate proteins (Homo sapiens, UniProt P49591); details: PreyGene SARS
Sequence of SW480 colon carcinoma cells lysate proteins (Homo sapiens, UniProt P49591) (P49591 whole entry, looked up): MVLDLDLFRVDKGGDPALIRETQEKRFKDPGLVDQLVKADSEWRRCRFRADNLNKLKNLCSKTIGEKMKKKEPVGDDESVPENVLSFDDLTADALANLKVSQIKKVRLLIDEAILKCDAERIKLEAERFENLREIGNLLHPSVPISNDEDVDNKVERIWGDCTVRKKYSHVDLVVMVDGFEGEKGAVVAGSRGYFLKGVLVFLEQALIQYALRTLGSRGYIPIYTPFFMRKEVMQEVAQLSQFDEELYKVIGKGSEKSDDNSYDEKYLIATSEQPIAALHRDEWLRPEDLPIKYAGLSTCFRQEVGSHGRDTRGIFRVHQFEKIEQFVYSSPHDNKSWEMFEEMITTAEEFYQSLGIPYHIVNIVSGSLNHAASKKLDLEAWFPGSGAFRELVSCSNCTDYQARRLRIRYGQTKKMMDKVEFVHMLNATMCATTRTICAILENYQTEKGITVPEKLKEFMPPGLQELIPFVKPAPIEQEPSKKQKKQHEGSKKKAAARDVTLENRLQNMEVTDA

[5] = target: T1, SW480 colon carcinoma cells lysate proteins (Homo sapiens, UniProt P50395); details: PreyGene GDI2
T1 sequence (P50395 1-445): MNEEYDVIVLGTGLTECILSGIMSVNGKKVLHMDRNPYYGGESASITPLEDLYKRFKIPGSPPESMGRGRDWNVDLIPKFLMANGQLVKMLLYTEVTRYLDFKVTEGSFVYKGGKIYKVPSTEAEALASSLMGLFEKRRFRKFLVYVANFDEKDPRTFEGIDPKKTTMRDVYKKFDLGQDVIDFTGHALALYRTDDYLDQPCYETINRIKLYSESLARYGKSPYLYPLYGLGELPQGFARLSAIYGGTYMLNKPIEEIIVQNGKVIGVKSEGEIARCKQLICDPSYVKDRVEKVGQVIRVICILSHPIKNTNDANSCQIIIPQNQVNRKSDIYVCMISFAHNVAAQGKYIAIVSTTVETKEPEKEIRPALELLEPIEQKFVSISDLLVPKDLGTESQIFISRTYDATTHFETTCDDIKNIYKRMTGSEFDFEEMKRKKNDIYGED

[6] = target: T2, SW480 colon carcinoma cells lysate proteins (Homo sapiens, UniProt P50454); details: PreyGene SERPINH1
T2 sequence (P50454 19-418): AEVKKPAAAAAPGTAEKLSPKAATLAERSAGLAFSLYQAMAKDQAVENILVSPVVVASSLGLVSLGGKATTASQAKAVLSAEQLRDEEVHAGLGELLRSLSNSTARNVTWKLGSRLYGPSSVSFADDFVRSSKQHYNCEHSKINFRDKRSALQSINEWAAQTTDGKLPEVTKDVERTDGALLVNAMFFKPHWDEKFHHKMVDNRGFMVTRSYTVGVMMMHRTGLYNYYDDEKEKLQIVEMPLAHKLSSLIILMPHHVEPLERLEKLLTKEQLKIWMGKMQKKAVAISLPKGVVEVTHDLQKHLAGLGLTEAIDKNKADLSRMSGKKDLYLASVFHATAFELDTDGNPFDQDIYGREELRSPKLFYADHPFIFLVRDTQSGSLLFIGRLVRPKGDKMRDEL

[7] = target: T3, SW480 colon carcinoma cells lysate proteins (Homo sapiens, UniProt P52565); details: PreyGene ARHGDIA
T3 sequence (P52565 1-204): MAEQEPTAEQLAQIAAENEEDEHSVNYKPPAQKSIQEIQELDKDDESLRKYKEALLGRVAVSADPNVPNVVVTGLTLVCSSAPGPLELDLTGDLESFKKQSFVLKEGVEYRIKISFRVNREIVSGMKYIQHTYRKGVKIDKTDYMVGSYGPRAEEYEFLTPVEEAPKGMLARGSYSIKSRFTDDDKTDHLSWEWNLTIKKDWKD

[8] = target: SW480 colon carcinoma cells lysate proteins (Homo sapiens, UniProt Q92616); details: PreyGene GCN1L1; SW480 cells
[9] = target: T4, SW480 colon carcinoma cells lysate proteins (Homo sapiens, UniProt Q9UJZ1); details: PreyGene STOML2; SW480 cells
T4 sequence (Q9UJZ1 29-356): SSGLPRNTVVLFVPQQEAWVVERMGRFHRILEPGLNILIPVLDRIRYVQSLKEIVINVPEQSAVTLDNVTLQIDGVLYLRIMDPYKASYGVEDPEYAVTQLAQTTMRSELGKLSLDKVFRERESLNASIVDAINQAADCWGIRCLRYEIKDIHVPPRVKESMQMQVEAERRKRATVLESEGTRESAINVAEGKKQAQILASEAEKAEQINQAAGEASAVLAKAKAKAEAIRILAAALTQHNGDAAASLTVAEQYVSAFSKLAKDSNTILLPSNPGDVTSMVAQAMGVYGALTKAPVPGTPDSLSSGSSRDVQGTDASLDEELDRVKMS

[10] = target: SW480 colon carcinoma cells lysate proteins (Homo sapiens, UniProt Q9Y490); details: PreyGene TLN1
Sequence of SW480 colon carcinoma cells lysate proteins (Homo sapiens, UniProt Q9Y490) (Q9Y490 whole entry): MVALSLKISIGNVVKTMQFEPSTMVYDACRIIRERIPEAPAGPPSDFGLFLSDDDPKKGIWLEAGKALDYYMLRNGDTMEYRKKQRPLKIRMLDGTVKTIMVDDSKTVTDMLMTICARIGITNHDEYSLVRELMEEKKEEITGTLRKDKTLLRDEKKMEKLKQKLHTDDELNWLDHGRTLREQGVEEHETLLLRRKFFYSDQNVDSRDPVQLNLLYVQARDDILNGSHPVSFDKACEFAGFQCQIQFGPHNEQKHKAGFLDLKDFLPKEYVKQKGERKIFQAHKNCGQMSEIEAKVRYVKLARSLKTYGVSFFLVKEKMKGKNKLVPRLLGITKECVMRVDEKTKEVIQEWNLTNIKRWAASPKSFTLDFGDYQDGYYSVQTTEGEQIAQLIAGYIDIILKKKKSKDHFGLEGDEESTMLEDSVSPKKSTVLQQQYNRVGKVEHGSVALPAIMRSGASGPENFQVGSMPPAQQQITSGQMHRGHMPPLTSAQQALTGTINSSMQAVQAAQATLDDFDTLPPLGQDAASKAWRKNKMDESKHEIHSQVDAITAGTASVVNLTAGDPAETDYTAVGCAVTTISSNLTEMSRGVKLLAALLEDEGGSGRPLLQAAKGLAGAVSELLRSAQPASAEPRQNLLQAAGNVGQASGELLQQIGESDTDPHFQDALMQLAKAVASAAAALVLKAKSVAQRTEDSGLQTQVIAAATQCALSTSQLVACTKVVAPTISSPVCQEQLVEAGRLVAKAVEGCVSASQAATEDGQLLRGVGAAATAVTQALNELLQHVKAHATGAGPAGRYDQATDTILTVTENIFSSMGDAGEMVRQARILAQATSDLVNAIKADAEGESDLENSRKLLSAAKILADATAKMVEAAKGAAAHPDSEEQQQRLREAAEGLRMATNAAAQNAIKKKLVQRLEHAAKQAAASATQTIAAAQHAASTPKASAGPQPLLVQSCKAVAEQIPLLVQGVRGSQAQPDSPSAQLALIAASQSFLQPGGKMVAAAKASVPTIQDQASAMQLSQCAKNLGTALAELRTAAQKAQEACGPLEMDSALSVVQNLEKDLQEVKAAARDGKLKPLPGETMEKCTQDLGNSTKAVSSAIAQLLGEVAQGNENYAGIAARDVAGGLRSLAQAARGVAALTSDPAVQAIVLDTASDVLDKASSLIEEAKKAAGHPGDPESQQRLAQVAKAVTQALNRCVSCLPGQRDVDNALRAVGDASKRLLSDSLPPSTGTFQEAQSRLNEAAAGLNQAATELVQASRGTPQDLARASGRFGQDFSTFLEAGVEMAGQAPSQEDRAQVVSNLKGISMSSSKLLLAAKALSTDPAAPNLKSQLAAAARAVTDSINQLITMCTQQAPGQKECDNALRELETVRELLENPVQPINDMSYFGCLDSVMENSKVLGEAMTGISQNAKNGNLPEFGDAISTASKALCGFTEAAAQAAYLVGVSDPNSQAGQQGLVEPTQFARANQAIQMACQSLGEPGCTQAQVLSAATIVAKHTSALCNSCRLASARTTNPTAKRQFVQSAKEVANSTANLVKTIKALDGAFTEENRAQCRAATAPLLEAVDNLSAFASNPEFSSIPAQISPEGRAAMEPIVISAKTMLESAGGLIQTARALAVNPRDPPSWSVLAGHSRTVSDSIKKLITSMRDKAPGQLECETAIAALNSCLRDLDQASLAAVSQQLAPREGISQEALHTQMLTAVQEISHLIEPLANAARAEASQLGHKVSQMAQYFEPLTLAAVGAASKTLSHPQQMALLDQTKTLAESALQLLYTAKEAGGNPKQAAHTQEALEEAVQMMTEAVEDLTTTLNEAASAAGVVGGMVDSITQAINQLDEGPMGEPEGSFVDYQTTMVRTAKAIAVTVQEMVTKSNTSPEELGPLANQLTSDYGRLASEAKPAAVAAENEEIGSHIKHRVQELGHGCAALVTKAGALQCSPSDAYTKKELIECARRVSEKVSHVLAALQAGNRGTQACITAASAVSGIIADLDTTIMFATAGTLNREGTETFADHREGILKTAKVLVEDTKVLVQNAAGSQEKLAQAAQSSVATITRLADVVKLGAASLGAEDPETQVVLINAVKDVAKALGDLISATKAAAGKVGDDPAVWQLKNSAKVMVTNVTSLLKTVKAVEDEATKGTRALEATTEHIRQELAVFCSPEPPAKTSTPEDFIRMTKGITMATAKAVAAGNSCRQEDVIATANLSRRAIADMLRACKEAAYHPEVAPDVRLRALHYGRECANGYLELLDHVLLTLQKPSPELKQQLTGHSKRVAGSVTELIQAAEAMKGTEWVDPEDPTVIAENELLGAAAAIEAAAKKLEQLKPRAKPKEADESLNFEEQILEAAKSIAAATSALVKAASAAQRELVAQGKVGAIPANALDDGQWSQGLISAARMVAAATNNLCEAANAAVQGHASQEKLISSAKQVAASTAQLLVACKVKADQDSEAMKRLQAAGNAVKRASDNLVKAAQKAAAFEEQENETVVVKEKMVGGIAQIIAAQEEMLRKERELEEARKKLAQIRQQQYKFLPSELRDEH

Sequence of SW480 colon carcinoma cells lysate proteins (Homo sapiens, UniProt O43707) (O43707 whole entry): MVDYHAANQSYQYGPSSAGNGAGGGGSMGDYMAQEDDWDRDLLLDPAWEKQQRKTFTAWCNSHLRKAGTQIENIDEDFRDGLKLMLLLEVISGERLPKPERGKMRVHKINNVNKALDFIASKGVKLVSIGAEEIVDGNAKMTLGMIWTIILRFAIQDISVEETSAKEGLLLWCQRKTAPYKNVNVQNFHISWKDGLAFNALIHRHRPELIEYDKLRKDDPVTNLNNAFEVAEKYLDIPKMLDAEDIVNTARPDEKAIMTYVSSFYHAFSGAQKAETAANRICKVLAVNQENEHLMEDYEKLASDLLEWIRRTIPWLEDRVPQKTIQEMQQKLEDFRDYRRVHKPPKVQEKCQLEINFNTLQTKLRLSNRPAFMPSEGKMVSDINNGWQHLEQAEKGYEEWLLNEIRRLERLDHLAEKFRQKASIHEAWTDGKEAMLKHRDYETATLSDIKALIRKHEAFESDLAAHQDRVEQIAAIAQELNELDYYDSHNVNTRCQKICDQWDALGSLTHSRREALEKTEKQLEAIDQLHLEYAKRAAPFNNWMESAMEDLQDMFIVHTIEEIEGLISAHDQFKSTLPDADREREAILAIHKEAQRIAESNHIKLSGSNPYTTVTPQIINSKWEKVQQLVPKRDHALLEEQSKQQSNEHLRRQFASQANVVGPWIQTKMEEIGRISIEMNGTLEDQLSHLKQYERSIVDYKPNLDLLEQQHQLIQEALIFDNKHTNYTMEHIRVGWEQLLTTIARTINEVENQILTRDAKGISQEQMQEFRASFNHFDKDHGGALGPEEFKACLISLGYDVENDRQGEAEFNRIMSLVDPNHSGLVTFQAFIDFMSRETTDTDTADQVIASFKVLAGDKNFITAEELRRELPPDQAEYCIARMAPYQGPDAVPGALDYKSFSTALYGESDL
Sequence of SW480 colon carcinoma cells lysate proteins (Homo sapiens, UniProt P06733) (P06733 whole entry): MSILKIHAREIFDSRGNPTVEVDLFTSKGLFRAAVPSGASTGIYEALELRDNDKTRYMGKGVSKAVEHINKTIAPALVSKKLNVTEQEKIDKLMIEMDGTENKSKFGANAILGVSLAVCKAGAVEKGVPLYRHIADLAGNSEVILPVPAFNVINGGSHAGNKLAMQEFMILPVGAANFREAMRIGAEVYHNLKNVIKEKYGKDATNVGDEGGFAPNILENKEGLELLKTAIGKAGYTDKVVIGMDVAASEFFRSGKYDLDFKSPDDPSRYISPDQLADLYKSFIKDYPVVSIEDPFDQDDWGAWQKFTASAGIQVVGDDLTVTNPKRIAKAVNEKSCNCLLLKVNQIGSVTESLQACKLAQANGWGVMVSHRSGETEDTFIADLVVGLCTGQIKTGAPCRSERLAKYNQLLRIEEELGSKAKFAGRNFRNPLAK

C[C@H](Oc1cc(-c2cnn(C3CCNCC3)c2)cnc1N)c1c(Cl)ccc(F)c1Cl [(5)-crizotinib]
AvgP [1]: 0.2923 | SC.Exp. 1-1 [1]: 4 | SC.Exp. 1-2 [1]: 4 | SC.Exp. 2-1 [1]: 0 | SC.Exp. 2-2 [1]: 0 | Sum (SC.Exp.) [1]: 8 | AvgP [2]: 0.2209 | SC.Exp. 1-1 [2]: 29 | SC.Exp. 1-2 [2]: 28 | SC.Exp. 2-1 [2]: 7 | SC.Exp. 2-2 [2]: 7 | Sum (SC.Exp.) [2]: 71 | AvgP [3]: 0.3104 | SC.Exp. 1-1 [3]: 2 | SC.Exp. 1-2 [3]: 1 | SC.Exp. 2-1 [3]: 0 | SC.Exp. 2-2 [3]: 0 | Sum (SC.Exp.) [3]: 3 | AvgP [4]: 0.4649 | SC.Exp. 1-1 [4]: 4 | SC.Exp. 1-2 [4]: 4 | SC.Exp. 2-1 [4]: 0 | SC.Exp. 2-2 [4]: 0 | Sum (SC.Exp.) [4]: 8 | AvgP [5]: 0.1854 | SC.Exp. 1-1 [5]: 4 | SC.Exp. 1-2 [5]: 0 | SC.Exp. 2-1 [5]: 0 | SC.Exp. 2-2 [5]: 0 | Sum (SC.Exp.) [5]: 4 | AvgP [6]: 0.3843 | SC.Exp. 1-1 [6]: 5 | SC.Exp. 1-2 [6]: 6 | SC.Exp. 2-1 [6]: 0 | SC.Exp. 2-2 [6]: 0 | Sum (SC.Exp.) [6]: 11 | AvgP [7]: 0.4128 | SC.Exp. 1-1 [7]: 2 | SC.Exp. 1-2 [7]: 3 | SC.Exp. 2-1 [7]: 0 | SC.Exp. 2-2 [7]: 0 | Sum (SC.Exp.) [7]: 5 | AvgP [8]: 0 | SC.Exp. 1-1 [8]: 37 | SC.Exp. 1-2 [8]: 34 | SC.Exp. 2-1 [8]: 37 | SC.Exp. 2-2 [8]: 37 | SC.Exp. Sum [8]: 145 | AvgP [9]: 0 | SC.Exp. 1-1 [9]: 5 | SC.Exp. 1-2 [9]: 4 | SC.Exp. 2-1 [9]: 2 | SC.Exp. 2-2 [9]: 2 | SC.Exp. Sum [9]: 13 | AvgP [10]: 0.4939 | SC.Exp. 1-1 [10]: 7 | SC.Exp. 1-2 [10]: 7 | SC.Exp. 2-1 [10]: 0 | SC.Exp. 2-2 [10]: 0 | Sum (SC.Exp.) [10]: 14
